Series [1] has as its system murine B16 melanoma cells. As to the kind of experiment: Subcutaneous murine B16 melanoma tumor model in C57BL/6 mice (tumor volume, tumor weight). Type of series: in vivo. The conditions noted are these: for percent inhibition of tumor weight (PITW): Day 16 necropsy, DTIC 5 mg/kg s.c. daily, TA-1 6 mg/kg s.c. daily, 9H10 i.p. Day 3 (100 μg), Day 6 (50 μg), Day 9 (50 μg), vs vehicle. As for the experimental part:
(§1) C57BL/6 mice were implanted subcutaneously with murine B16 melanoma cells (Cell Culture Center, Institute of Basic Medical Sciences, Peking Union Medical College and Chinese Academy of Medical Sciences PUMC&CAMS, Beijing, P.R.China), followed by treatment with TA-1 or DTIC alone or in combination for 14 consecutive days. The day of tumor implantation was defined as Day 0. Meanwhile 9H10 was given in two groups via i.p. on Day 3, 6 and 9. TA-1 and DTIC were administered daily by s.c. injection. In total, 5 groups of mice (n=10) were used: Group 1: vehicle; Group 2: DTIC 5 mg/kg; Group 3: TA-1 6 mg/kg; Group 4: DTIC 5 mg/kg+9H10 (Day 3 (100 μg), Day 6 (50 μg), Day 9 (50 μg)); Group 5: DTIC 5 mg/kg+TA-1 6 mg/kg+9H10 (Day 3 (100 μg), Day 6 (50 μg), Day 9 (50 μg)) (Table 1). The animals were six weeks old and weighed between 18 and 22 grams at the start of the study. Tumor volume and body weight were measured every three days, and tumor weights were measured on Day 16 at the end of the study.
Phosphate buffered saline (PBS) was used as the negative control article (vehicle). TA-1 solution was stored at 2-8° C. and used up in one week. DTIC(SIGMA) was initially dissolved in 0.01 N HCl and then diluted with PBS to 1 mg/mL. DTIC dosing solution was kept on ice, protected from light, and used within one day. Final dosing solutions were prepared on the day of use by diluting the stock solution to 1× with water. The antibody reagent 9H10 (EBIOSCIENCE) was a ready-to-use agent at a concentration of 1 mg/mL.
Mortality and moribundity were checked twice daily, the body weights were recorded once every 3 days, and tumors were measured using a caliper once every 3 days. […]
Based on the tumor size, the tumor volume (TV) was calculated with the formula: [TV=(Length×Width×Width)/2]. And the percent inhibition (PI) of TV (PITV) was calculated according to the equation below: […]
The anti-tumor effect of the test article was further evaluated with tumor weight (TW) measured on day of necropsy (Day 16). The PI of TW was calculated using the equation below: […]

Series [2] in a line: Body weight of B16 tumor-bearing C57BL/6 mice during treatment. Type of series: in vivo. The conditions noted are these: TA-1 6 mg/kg s.c. daily, alone or in combination, throughout the course of the study. As for the experimental part:
as §1
Mortality and moribundity were checked twice daily, the body weights were recorded once every 3 days, and tumors were measured using a caliper once every 3 days. At the end of the study (Day 16), the animals were euthanized by CO2 asphyxiation, and the tumors were excised and weighed.

No end group written: not given here.

On to “thymosin alpha 1 (Ac-SDAAVDTSSEITTKDLKEKKEVVEEAEN; ends and bridges not checked; UniProt P06454 2-29, looked up) [TA-1, 28 amino acid peptide with a molecular weight of 3108, initially isolated from Thymosin Fraction 5]”, for which the “mice with palpable tumors” value in series [1] (Day 9, n=10 per group) was “most mice”. Besides, the “percent inhibition of tumor weight (PITW)” value in series [1] was 43.35%. Further, the “loss of body weight” value in series [2] was “did not cause any loss of body weight”.
For `CN(C)/N=N/c1[nH]cnc1C(N)=O` [DTIC, dacarbazine, reference compound], the “percent inhibition of tumor weight (PITW)” value in series [1] was determined as 28.41%.

The values are drawn from patent US20100330093A1, “TREATMENT OF MELANOMA WITH ALPHA THYMOSIN PEPTIDES IN COMBINATION WITH ANTIBODIES AGAINST CYTOTOXIC T LYMPHOCYTE-ASSOCIATED ANTIGEN 4 (CTLA4)” (SciClone Pharmaceuticals, Inc., priority 2007, published 2010).
